Measured values reported in ChEMBL document CHEMBL3885881, “DrugMatrix”.

Organism: Rattus norvegicus
Assay: DrugMatrix - Regimen: Daily Repeat
Assay type: toxicity, organism-based, Sprague-Dawley
Design: regimen Daily Repeat, gender Male, age 6-8 weeks
Details: in vivo, iv, vehicle 100 % SALINE; for ABSOLUTE BASOPHIL / ABSOLUTE EOSINOPHIL / ABSOLUTE LYMPHOCYTE / ABSOLUTE MONOCYTE / ABSOLUTE SEGMENTED NEUTROPHIL / BASOPHIL / EOSINOPHIL / ERYTHROCYTE COUNT / HEMATOCRIT / HEMOGLOBIN / LEUKOCYTE COUNT / LYMPHOCYTE / MEAN CORPUSCULAR HEMOGLOBIN / MEAN CORPUSCULAR HEMOGLOBIN CONCENTRATION / MEAN CORPUSCULAR VOLUME / MONOCYTE / NEUTROPHIL / NUCLEATED RED BLOOD CELLS / PLATELET COUNT: tissue Blood; for ALANINE AMINOTRANSFERASE / ALBUMIN / ALKALINE PHOSPHATASE / ASPARTATE AMINOTRANSFERASE / BLOOD UREA NITROGEN / CARBON DIOXIDE / CHLORIDE / CHOLESTEROL / CREATINE PHOSPHOKINASE / CREATININE / GLUCOSE / LACTATE DEHYDROGENASE / LIPASE / PHOSPHORUS / POTASSIUM / SODIUM / TOTAL BILIRUBIN / TOTAL PROTEIN / URIC ACID: tissue Plasma
[1] = 0 mg/kg, 72 h, dose level Control, time 3 day
[2] = 0 mg/kg, 120 h, dose level Control, time 5 day
[3] = 0.005 mg/kg, 72 h, dose level Low, time 3 day

Structure (SMILES): CC(=O)O[C@H]1C[C@@H]2CC[C@@H]3[C@H](CC[C@@]4(C)[C@H]3C[C@H]([N+]3(C)CCCCC3)[C@@H]4OC(C)=O)[C@@]2(C)C[C@@H]1N1CCCCC1.[Br-] [VECURONIUM BROMIDE]
- ABSOLUTE BASOPHIL [1]: 0 CELLS/uL
- ABSOLUTE EOSINOPHIL [1]: 0 CELLS/uL
- ABSOLUTE LYMPHOCYTE [1]: 11636.83 CELLS/uL
- ABSOLUTE MONOCYTE [1]: 159 CELLS/uL
- ABSOLUTE SEGMENTED NEUTROPHIL [1]: 1170.83 CELLS/uL
- BASOPHIL [1]: 0%
- EOSINOPHIL [1]: 0%
- ERYTHROCYTE COUNT [1]: 5.46 x10E6/uL
- HEMATOCRIT [1]: 34.05%
- HEMOGLOBIN [1]: 13.58 G/DL
- LEUKOCYTE COUNT [1]: 12.97 x10E3/uL
- LYMPHOCYTE [1]: 89.67%
- MEAN CORPUSCULAR HEMOGLOBIN [1]: 24.87 pg
- MEAN CORPUSCULAR HEMOGLOBIN CONCENTRATION [1]: 39.9 G/DL
- MEAN CORPUSCULAR VOLUME [1]: 62.3 fL
- MONOCYTE [1]: 1.33%
- NEUTROPHIL [1]: 9%
- NUCLEATED RED BLOOD CELLS [1]: 0.17 /100WBC
- PLATELET COUNT [1]: 824 x10E3/uL
- ALANINE AMINOTRANSFERASE [1]: 64.83 u/L
- ALBUMIN [1]: 4.08 G/DL
- ALKALINE PHOSPHATASE [1]: 421 u/L
- ASPARTATE AMINOTRANSFERASE [1]: 116.83 u/L
- BLOOD UREA NITROGEN [1]: 16.83 mg/dL
- CARBON DIOXIDE [1]: 28 mmol/L
- CHLORIDE [1]: 101.33 MEQ/L
- CHOLESTEROL [1]: 74.17 mg/dL
- CREATINE PHOSPHOKINASE [1]: 748.5 u/L
- CREATININE [1]: 0.22 mg/dL
- GLUCOSE [1]: 152.83 mg/dL
- LACTATE DEHYDROGENASE [1]: 578.5 u/L
- LIPASE [1]: 9.83 u/L
- PHOSPHORUS [1]: 11.63 mg/dL
- POTASSIUM [1]: 5.93 MEQ/L
- SODIUM [1]: 142.1 MEQ/L
- TOTAL BILIRUBIN [1]: 0.17 mg/dL
- TOTAL PROTEIN [1]: 5.77 G/DL
- URIC ACID [1]: 1.43 mg/dL
- ABSOLUTE BASOPHIL [2]: 0 CELLS/uL
- ABSOLUTE EOSINOPHIL [2]: 159.17 CELLS/uL
- ABSOLUTE LYMPHOCYTE [2]: 12267.5 CELLS/uL
- ABSOLUTE MONOCYTE [2]: 30 CELLS/uL
- ABSOLUTE SEGMENTED NEUTROPHIL [2]: 1160 CELLS/uL
- BASOPHIL [2]: 0%
- EOSINOPHIL [2]: 1.17%
- ERYTHROCYTE COUNT [2]: 5.52 x10E6/uL
- HEMATOCRIT [2]: 34.3%
- HEMOGLOBIN [2]: 13.73 G/DL
- LEUKOCYTE COUNT [2]: 13.62 x10E3/uL
- LYMPHOCYTE [2]: 90.5%
- MEAN CORPUSCULAR HEMOGLOBIN [2]: 24.92 pg
- MEAN CORPUSCULAR HEMOGLOBIN CONCENTRATION [2]: 40.07 G/DL
- MEAN CORPUSCULAR VOLUME [2]: 62.17 fL
- MONOCYTE [2]: 0.17%
- NEUTROPHIL [2]: 8.17%
- NUCLEATED RED BLOOD CELLS [2]: 0.17 /100WBC
- PLATELET COUNT [2]: 1261.83 x10E3/uL
- ALANINE AMINOTRANSFERASE [2]: 58.67 u/L
- ALBUMIN [2]: 4.15 G/DL
- ALKALINE PHOSPHATASE [2]: 364.67 u/L
- ASPARTATE AMINOTRANSFERASE [2]: 105.33 u/L
- BLOOD UREA NITROGEN [2]: 17.67 mg/dL
- CARBON DIOXIDE [2]: 26.5 mmol/L
- CHLORIDE [2]: 101.67 MEQ/L
- CHOLESTEROL [2]: 63 mg/dL
- CREATINE PHOSPHOKINASE [2]: 480.67 u/L
- CREATININE [2]: 0.17 mg/dL
- GLUCOSE [2]: 144.67 mg/dL
- LACTATE DEHYDROGENASE [2]: 540.33 u/L
- LIPASE [2]: 10.33 u/L
- PHOSPHORUS [2]: 11.52 mg/dL
- POTASSIUM [2]: 6.12 MEQ/L
- SODIUM [2]: 142.45 MEQ/L
- TOTAL BILIRUBIN [2]: 0.18 mg/dL
- TOTAL PROTEIN [2]: 5.73 G/DL
- URIC ACID [2]: 1.48 mg/dL
- ABSOLUTE BASOPHIL [3]: 0 CELLS/uL
- ABSOLUTE EOSINOPHIL [3]: 199.67 CELLS/uL
- ABSOLUTE LYMPHOCYTE [3]: 11233.67 CELLS/uL
- ABSOLUTE MONOCYTE [3]: 56 CELLS/uL
- ABSOLUTE SEGMENTED NEUTROPHIL [3]: 844 CELLS/uL
- BASOPHIL [3]: 0%
- EOSINOPHIL [3]: 1.33%
- ERYTHROCYTE COUNT [3]: 5.06 x10E6/uL
- HEMATOCRIT [3]: 32.6%
- HEMOGLOBIN [3]: 13.3 G/DL
- LEUKOCYTE COUNT [3]: 12.33 x10E3/uL
- LYMPHOCYTE [3]: 91.67%
- MEAN CORPUSCULAR HEMOGLOBIN [3]: 26.33 pg
- MEAN CORPUSCULAR HEMOGLOBIN CONCENTRATION [3]: 40.8 G/DL
- MEAN CORPUSCULAR VOLUME [3]: 64.5 fL
- MONOCYTE [3]: 0.33%
- NEUTROPHIL [3]: 6.67%
- NUCLEATED RED BLOOD CELLS [3]: 0.33 /100WBC
- PLATELET COUNT [3]: 730.67 x10E3/uL
- ALANINE AMINOTRANSFERASE [3]: 57 u/L
- ALBUMIN [3]: 4.2 G/DL
- ALKALINE PHOSPHATASE [3]: 421.67 u/L
- ASPARTATE AMINOTRANSFERASE [3]: 117.33 u/L
- BLOOD UREA NITROGEN [3]: 19 mg/dL
- CARBON DIOXIDE [3]: 31 mmol/L
- CHLORIDE [3]: 100.67 MEQ/L
- CHOLESTEROL [3]: 72 mg/dL
- CREATINE PHOSPHOKINASE [3]: 975.33 u/L
- CREATININE [3]: 0.22 mg/dL
- GLUCOSE [3]: 155.33 mg/dL
- LACTATE DEHYDROGENASE [3]: 630.33 u/L
- LIPASE [3]: 11.67 u/L
- PHOSPHORUS [3]: 10.7 mg/dL
- POTASSIUM [3]: 6.14 MEQ/L
- SODIUM [3]: 141.83 MEQ/L
- TOTAL BILIRUBIN [3]: 0.2 mg/dL
- TOTAL PROTEIN [3]: 5.87 G/DL
- URIC ACID [3]: 1.03 mg/dL
